Source: patent US9181262B2, “Crystalline forms of a dipeptidyl peptidase-IV inhibitors” (Merck Sharp & Dohme Corp, priority 2011, dated 2015)
In brackets after ≈: the same amount, converted by molar mass.

Assays:
solubility in water = type: physicochemical; conditions: crystalline forms of Compound I (anhydrous free base)
[1] = relative stability of crystalline forms (turnover experiments); type: physicochemical; conditions: for relative phase stability of the crystalline form: relationship between polymorphs of Compound I
Experimental: Crystalline Form II was produced by re-crystallization of Form I in isopropyl acetate and heptane 1:1 at room temperature. Form II was characterized using XRPD, ssNMR, DSC, TGA and IR. […] 17 hr, IPAc 60° C. for one day, H2O 60° C. over two weeks, three days, NMP-water 1-1 35° C. over three days.

CS(=O)(=O)n1cc2c(n1)CN([C@H]1CO[C@H](c3cc(F)ccc3F)[C@@H](N)C1)C2 [Compound I, (2R,3S,5R)-2-(2,5-Difluorophenyl)-5-[2-(methylsulfonyl)-2,6-dihydropyrrolo[3,4-c]pyrazol-5(4H)-yl]tetrahydro-2H-pyran-3-amine]
solubility (solubility in water): ~2000 µg/mL (≈ 5.02 mM)

CS(=O)(=O)n1cc2c(n1)CN([C@H]1CO[C@H](c3cc(F)ccc3F)[C@@H](N)C1)C2 [Form I, (2R,3S,5R)-2-(2,5-Difluorophenyl)-5-[2-(methylsulfonyl)-2,6-dihydropyrrolo[3,4-c]pyrazol-5(4H)-yl]tetrahydro-2H-pyran-3-amine]
relative phase stability of the crystalline form [1]: most stable phase above 13 °C

CS(=O)(=O)n1cc2c(n1)CN([C@H]1CO[C@H](c3cc(F)ccc3F)[C@@H](N)C1)C2 [Form II, (2R,3S,5R)-2-(2,5-Difluorophenyl)-5-[2-(methylsulfonyl)-2,6-dihydropyrrolo[3,4-c]pyrazol-5(4H)-yl]tetrahydro-2H-pyran-3-amine]
conversion of Form II into Form I ([1]; turnover experiments with 50-50 seed: DCM-Heptane 25° C., IPAc 25° C. and 60° C., H2O 60° C., NMP-water 1-1 35° C.): slow but observed in all turnover experiments

CS(=O)(=O)n1cc2c(n1)CN([C@H]1CO[C@H](c3cc(F)ccc3F)[C@@H](N)C1)C2 [Form III, (2R,3S,5R)-2-(2,5-Difluorophenyl)-5-[2-(methylsulfonyl)-2,6-dihydropyrrolo[3,4-c]pyrazol-5(4H)-yl]tetrahydro-2H-pyran-3-amine]
relative phase stability of the crystalline form [1]: metastable to Form I and II

CS(=O)(=O)n1cc2c(n1)CN([C@H]1CO[C@H](c3cc(F)ccc3F)[C@@H](N)C1)C2 [Form IV, (2R,3S,5R)-2-(2,5-Difluorophenyl)-5-[2-(methylsulfonyl)-2,6-dihydropyrrolo[3,4-c]pyrazol-5(4H)-yl]tetrahydro-2H-pyran-3-amine]
relative phase stability of the crystalline form [1]: metastable to Form I and II
